From patent US8669284B2, “Pharmaceutical composition comprising a bi-cyclic compound and method for stabilizing the bi-cyclic compound” (Sucampo AG, priority 2006, dated 2014)

Legend:
Format in all cases: physicochemical
[1] = Stability of soft gelatin capsule of compound 1 at 40° C.; conditions: fill 240 μg/g in medium chain fatty acid triglyceride; for conc. (% of Initial) 40° C. 1 mo: 1 month; for conc. (% of Initial) 40° C. 2 mo: 2 months
Experimental: Glycerin in an amount shown in Table 3 was added in an appropriate amount of water, stirred and heated. Then, gelatin 100 parts by weight was added thereto to give gelatin solution. Compound 1 was dissolved in medium chain fatty acid triglyceride (USP/NF grade) to give a fill solution containing 240 μg/g of compound 1. The gelatin solution and the fill solution were loaded on capsule forming and filling machine to give capsule containing the fill solution, and dried to give soft gelatin capsule.
The capsule was put in a sealed container and kept at 40° C. for 2 months. The concentration of compound 1 in the fill solution contained in the capsule was determined after 1 and 2 months storage in the same manner as EXAMPLE 1.

[2] = Stability of compound 1 in medium chain fatty acid triglyceride kept with gelatin/glycerin piece at 40° C.; conditions: 60 μg/g in medium chain fatty acid triglyceride with gelatin piece (gelatin 100, glycerin 35 parts by weight), sealed container, 21 days, on the basis of theoretical amount
Experimental: One hundred (100) parts by weight of gelatin (Type A, high bloom, SKW Biosystems #195F) and 35 parts by weight of glycerin, a plasticizer, were mixed in water and dried to give gelatin piece whose water content was about 4%. Compound 1 was dissolved in medium chain fatty acid triglyceride (USP/NF grade) to give a liquid mixture comprising 60 μg/g of the compound. 0.5 g of the liquid mixture and 0.5 g of gelatin piece were put together in a sealed container and kept at 40° C. for 21 days. The concentration of compound 1 contained in the liquid mixture was determined in the same manner as Example 1. As a result, the amount of the compound 1 at day 21 was 97.0% on the basis of a theoretical amount (60 μg/g).

[3] = Stability of compound 1 in vehicle solution, 55° C. storage, HPLC; conditions: for Concentration of compound 1 after 55° C. storage, day 10: 55° C. for 10 days; for Concentration of compound 1 after 55° C. storage, day 10 / Concentration of compound 1, day 0: percentage based on the theoretical amount; for Concentration of compound 1, day 0: before storage
Experimental: Compound 1 was dissolved in a vehicle shown in table 1 below to give 240 μg/g solution (sample). The precise concentration of Compound 1 in the solution was determined by means of HPLC (day 0). Then, the solution was put in a hard grass container and kept at 55° C. for 10 days, and then the precise concentration of the compound 1 in the solution was determined by means of HPLC (day 10).
The determination of the concentration of the compound in the sample was carried out as follows. About 0.2 g of the sample was mixed with exactly 2 ml of internal standard solution and then with a dissolving agent shown in Table 1 to give 5 mL of sample solution. About 12 mg of the reference standard compound 1 was weighted precisely and added with acetonitrile to give exactly 100 ml solution. Exactly 0.8 ml of the solution was obtained and added with exactly 4 ml of the internal standard solution, and then added with the dissolving agent to give 10 ml of standard solution.
The fluorescent labeling agent was added to the respective solution, stirred and stood at room temperature. Then, the respective solution in an amount that theoretically gives 3.6 ng of compound 1 was loaded on the column and analyzed under the condition as follows:
Column: 5 mm×25 cm stainless steel column packed with octadecylsilane treated silica gel for HPLC (5 μm)
Mobile phase: mixture of acetonitrile HPLC grade: methanol HPLC grade: ammonium acetate (0.05 mol/L)

[4] = soft gelatin capsule shell gelatin 100, glycerin 45 parts by weight
[5] = soft gelatin capsule shell gelatin 100, glycerin 55 parts by weight
[6] = vehicle glycerin, 240 μg/g solution
[7] = vehicle isopropyl palmitate, 240 μg/g solution
[8] = vehicle linolenic acid (comparative), 240 μg/g
[9] = vehicle oleic acid (comparative), 240 μg/g
[10] = vehicle polyethylene glycol 400, 240 μg/g solution
[11] = vehicle propylene glycol ester of fatty acid, 240 μg/g solution
[12] = vehicle propylene glycol, 240 μg/g solution

Compound: CCCCC(F)(F)[C@@]1(O)CC[C@H]2[C@@H](CC(=O)[C@@H]2CCCCCCC(=O)O)O1 [Compound 1, 7-[(2R,4aR,5R,7aR)-2-(1,1-difluoropentyl)-2-hydroxy-6-oxooctahydrocyclopenta[b]pyran-5-yl]heptanoic acid]
- conc. (% of Initial) 40° C. 1 mo [1, 4]: 100.0%
- conc. (% of Initial) 40° C. 2 mo [1, 4]: 98.7%
- conc. (% of Initial) 40° C. 1 mo [1, 5]: 97.7%
- conc. (% of Initial) 40° C. 2 mo [1, 5]: 94.0%
- amount of the compound 1 at day 21 [2]: 97.0%
- stability of compound 1 ([3]; admixing with a polyol and/or a fatty acid ester other than glyceride, versus comparative vehicles): significantly improved
- Concentration of compound 1 after 55° C. storage, day 10 [3, 6]: 78.0%
- Concentration of compound 1, day 0 [3, 6]: 92.0%
- Concentration of compound 1 after 55° C. storage, day 10 ([3]; vehicle hydrogenated maltose starch syrup (comparative), 240 μg/g): 24.4%
- Concentration of compound 1 after 55° C. storage, day 10 [3, 7]: 99.1%
- Concentration of compound 1, day 0 [3, 7]: 98.9%
- Concentration of compound 1 after 55° C. storage, day 10 [3, 8]: 33.1%
- Concentration of compound 1, day 0 [3, 8]: 74.8%
- Concentration of compound 1 after 55° C. storage, day 10 [3, 9]: 57.3%
- Concentration of compound 1, day 0 [3, 9]: 101.7%
- Concentration of compound 1 after 55° C. storage, day 10 [3, 10]: 90.1%
- Concentration of compound 1, day 0 [3, 10]: 98.2%
- Concentration of compound 1 after 55° C. storage, day 10 [3, 11]: 89.0%
- Concentration of compound 1, day 0 [3, 11]: 99.9%
- Concentration of compound 1 after 55° C. storage, day 10 [3, 12]: 88.6%
- Concentration of compound 1, day 0 [3, 12]: 97.8%
- Concentration of compound 1 after 55° C. storage, day 10 ([3]; vehicle sugar alcohol solution derived from corn starch (comparative), 240 μg/g): 26.3%
